Values quoted from earlier work in patent US10624856B2, “Non-extractable oral solid dosage forms” (Dharma Laboratories LLC, priority 2018, dated 2020).

What was measured:
[1] = in vivo

In the case of Oc1ccc2c3c1O[C@H]1[C@H](O)CC[C@@]4(O)[C@@H](C2)N(CC2CC2)CC[C@]314 [6-beta-naltrexol], the half-life [1] is listed as 16 h.

In the case of C=CCN1CC[C@]23c4c5ccc(O)c4O[C@H]2C(=O)CC[C@@]3(O)[C@H]1C5 [Naloxone], the “oral bioavailability (in words)” value ([1]; po) is given as “low”.

For O=C1CC[C@@]2(O)[C@H]3Cc4ccc(O)c5c4[C@@]2(CCN3CC2CC2)[C@H]1O5 [Naltrexone], the Plasma protein binding is given as 21%.
